Measurements: patent US20060078504A1, “Sustanined-release pharmaceutical composition for lung administration” (priority 2003, published 2006)

Assay: Test Example 1: serum theophylline pharmacokinetics after intratracheal administration of solutions A to D to rats
Type: in vivo, Wistar male rats
Details: solution A, intratracheal vs intravenous (femoral vein), rat, FIG. 1
Description: Wistar male rats (body weight about 220 g) fasted for about 18 hours were used as experimental animals. […] That is, the rats were anesthetized with pentobarbital (about 32 mg/kg) and secured on their back on animal boards, the tracheas were exposed through a longitudinal incision. A section of polyethylene tube (i.d. 1.5 mm, o.d. 2.3 mm) 2.5 cm in length was inserted through the tracheal incision for a distance of 0.6 cm between the forth and fifth tracheal rings caudal to the thyroid cartilage. Each of one hundred microliters of drug solutions A-D was drawn into a glass microsyringe, and then rat was maintained at an angle of 80°. The tip of syringe was inserted through the polyethylene tube to 1-2 mm above the bifurcation of the trachea. Then, the solution was injected over a period of 1-2 sec. About 45 sec after the administration, the rat was positioned at an angle of 10° and the incision in the skin was then closed with suture.
The theophylline concentrations in the obtained serum were measured by HPLC.

## Cn1c(=O)c2[nH]cnc2n(C)c1=O [theophylline]
  pulmonary absorption compared with intravenous administration (in words): as quick and effective as achieved by intravenous administration
